These results are taken from ChEMBL document CHEMBL1201862, “PubChem BioAssay data set” (2004).

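48-hour exposure; five concentrations; linearly interpolated endpoints. Here, GI50 denotes the concentration required for 50% inhibition of growth.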 The source made the active and inactive calls. Cut-off read from the data, not from the text of the source: active = GI50 up to about 1.1 µM and inactive = higher.

Among the test systems are Malme-3M; SW-620; OVCAR-8; A498; HL-60; OVCAR-3; SK-MEL-2; EKVX; RXF 393; M14; ACHN; K562; SN12C; MCF7; OVCAR-4; NCI-H23; KM12; Hs-578T; SF-268; SNB-19.
Holding throughout (assay): growth of human tumour cells (NCI), 48 h

On to `CCOC(=O)C(=CN1CCNC1=S)C(=O)OCC`, for which the GI50 in the assay with Malme-3M was > 100 µM (inactive); in the assay with SW-620, > 100 µM (inactive); with OVCAR-8 it was > 100 µM (inactive); in the assay on A498, 18.2 µM (inactive); in the assay with HL-60 it was > 100 µM (inactive); in the assay on OVCAR-3 it was 0.288 µM (active). Moreover, the GI50 in the assay with SK-MEL-2, in the assay with EKVX, in the assay with RXF 393, in the assay with M14, with ACHN and in the assay on K562 was > 100 µM (inactive) throughout. Further, the GI50 in the assay on SN12C, in the assay on MCF7, in the assay on OVCAR-4 and with NCI-H23 was > 100 µM (inactive) each time.
With `O=C1/C(=C/c2cccc(F)c2)CCCc2ccccc21`, the GI50 with Malme-3M was 11.6 µM (inactive); in the assay with SW-620, 16.9 µM (inactive); in the assay on OVCAR-8, 15.8 µM (inactive); in the assay with HL-60, 21.5 µM (inactive); in the assay on OVCAR-3, 15.3 µM (inactive); in the assay on KM12 it was 12.1 µM (inactive). Besides, the GI50 in the assay with SK-MEL-2 was 16.2 µM (inactive); in the assay with EKVX, 15 µM (inactive); with M14 it was 13.9 µM (inactive); in the assay on ACHN, 19.1 µM (inactive); in the assay on K562, 15.1 µM (inactive); in the assay on SN12C it was 17.9 µM (inactive). Further, the GI50 in the assay on MCF7 was 14.6 µM (inactive); in the assay with OVCAR-4, 16.7 µM (inactive); in the assay on Hs-578T, 13.2 µM (inactive); in the assay on SF-268, 12.9 µM (inactive); with NCI-H23 it was 20.4 µM (inactive); in the assay with SNB-19, 16 µM (inactive).
For `CC1=C2CN(C(=O)OCC(C)C)CCC2C2=C(C(=O)c3ccccc3C2=O)C1C` (centres undefined), the GI50 in the assay on Malme-3M, in the assay on SW-620, with OVCAR-8, with HL-60, in the assay on KM12 and in the assay on EKVX was > 10 µM (inactive) throughout. Also, the GI50 with RXF 393, in the assay with M14, with K562, in the assay with SN12C, with MCF7 and in the assay on OVCAR-4 was > 10 µM (inactive) in each case. Also, the values for the GI50 in the assay with SF-268 and with NCI-H23 were > 10 µM (inactive) and 6.53 µM (inactive), respectively.
As for `CCOC(=O)C(C(O)c1ccc([N+](=O)[O-])cc1)P(=O)(OCC)OCC` (centres undefined), the GI50 in the assay on Malme-3M was > 100 µM (inactive); with SW-620, 57.3 µM (inactive); with OVCAR-8, 95.1 µM (inactive); with A498 it was > 100 µM (inactive); with HL-60, 16.7 µM (inactive); in the assay on OVCAR-3, > 100 µM (inactive). Besides, the GI50 was > 100 µM (inactive) in the assay on KM12; > 100 µM (inactive) in the assay on SK-MEL-2; > 100 µM (inactive) in the assay with EKVX; 36.5 µM (inactive) in the assay on RXF 393; > 100 µM (inactive) with M14; > 100 µM (inactive) in the assay with ACHN. Moreover, the GI50 in the assay with K562 was 31.3 µM (inactive); with SN12C, > 100 µM (inactive); with OVCAR-4 it was > 100 µM (inactive); in the assay with SF-268, > 100 µM (inactive); in the assay with NCI-H23, > 100 µM (inactive); with SNB-19, > 100 µM (inactive).
`CC(C)[C@H]1C(=O)O[B@-](F)(c2ccccc2)/[N+]1=C\N(C)C`: the GI50 in the assay with Malme-3M, in the assay with SW-620, with OVCAR-8, in the assay on HL-60, in the assay on OVCAR-3 and with EKVX was > 100 µM (inactive) in each case. The GI50 with M14 is > 100 µM (inactive); with ACHN it was > 100 µM (inactive); in the assay with K562, > 100 µM (inactive); in the assay on SN12C, > 100 µM (inactive); with MCF7, > 100 µM (inactive); in the assay on OVCAR-4, 30.1 µM (inactive). In addition, the GI50 in the assay on SF-268, in the assay with NCI-H23 and in the assay with SNB-19 was > 100 µM (inactive) each time.
For `CCc1n[nH]c(=O)n1/N=C/c1c(O)ccc2ccccc12`, the GI50 in the assay with SW-620, in the assay on OVCAR-8, in the assay with OVCAR-3, with KM12, in the assay on SK-MEL-2 and with EKVX was > 100 µM (inactive) throughout. The GI50 in the assay on RXF 393, in the assay with M14, in the assay on ACHN, with K562, with SN12C and in the assay with MCF7 was > 100 µM (inactive) in each case. The GI50 was > 100 µM (inactive) in the assay on OVCAR-4; 2.06 µM (inactive) with Hs-578T; > 100 µM (inactive) in the assay with SF-268; > 100 µM (inactive) with NCI-H23; > 100 µM (inactive) in the assay with SNB-19.
Consider `O=S(=O)(c1ccc(-c2nnc(-c3ccc(F)cc3)o2)cc1)c1ccc(-c2nnc(-c3ccc(F)cc3)o2)cc1`, for which the GI50 in the assay on Malme-3M was > 100 µM (inactive); in the assay with SW-620 it was > 100 µM (inactive); in the assay with OVCAR-8, > 100 µM (inactive); in the assay with A498 it was 25.5 µM (inactive); with HL-60 it was > 100 µM (inactive); in the assay on OVCAR-3 it was > 100 µM (inactive). Further, the GI50 was > 100 µM (inactive) with KM12; > 100 µM (inactive) in the assay on SK-MEL-2; > 100 µM (inactive) in the assay on EKVX; 22.2 µM (inactive) in the assay with RXF 393; > 100 µM (inactive) in the assay on M14; 14.7 µM (inactive) with ACHN. Also, the GI50 with K562, with SN12C, in the assay on MCF7, with OVCAR-4, in the assay with SF-268 and with NCI-H23 was > 100 µM (inactive) in each case. The GI50 in the assay on SNB-19 is 34.6 µM (inactive).
`O=C(O)CSCC(=O)O`: the GI50 with Malme-3M, in the assay on SW-620, with OVCAR-8, with A498, in the assay with HL-60 and in the assay with OVCAR-3 was > 100 µM (inactive) in each case. Also, the GI50 with KM12, with SK-MEL-2, in the assay on EKVX, with RXF 393, with M14 and in the assay on ACHN was > 100 µM (inactive) throughout. Also, the GI50 in the assay with K562, with SN12C, in the assay on OVCAR-4, with Hs-578T, in the assay on SF-268 and with NCI-H23 was > 100 µM (inactive) in each case. The GI50 with SNB-19 is > 100 µM (inactive).
With `COC(=O)C1(C(=O)OC)CC2=C(S(=O)(=O)c3ccccc3)C[C@H](S(=O)(=O)c3ccccc3)[C@H]2C1`, the GI50 is 80.2 µM (inactive) with Malme-3M; > 100 µM (inactive) in the assay with SW-620; > 100 µM (inactive) in the assay with OVCAR-8; > 100 µM (inactive) in the assay with A498; 29 µM (inactive) in the assay on OVCAR-3; 91.8 µM (inactive) in the assay on KM12. Moreover, the GI50 is 27.2 µM (inactive) in the assay on SK-MEL-2; > 100 µM (inactive) in the assay with EKVX; 13.8 µM (inactive) in the assay on RXF 393; > 100 µM (inactive) in the assay on M14; > 100 µM (inactive) in the assay on ACHN; 23.7 µM (inactive) in the assay with K562. In addition, the GI50 is > 100 µM (inactive) in the assay with SN12C; > 100 µM (inactive) with OVCAR-4; > 100 µM (inactive) with Hs-578T; > 100 µM (inactive) in the assay on SF-268; > 100 µM (inactive) in the assay with NCI-H23; 71.6 µM (inactive) in the assay with SNB-19.
For `CC(C)N1CC2CC(CN(C(=O)c3ccc(Cl)cc3)C2)C1`, the GI50 with Malme-3M, in the assay with SW-620, in the assay on OVCAR-8, with A498, in the assay on HL-60 and in the assay with OVCAR-3 was > 100 µM (inactive) in each case. Further, the GI50 with KM12, in the assay with SK-MEL-2, in the assay on EKVX, in the assay with RXF 393, with M14 and with ACHN was > 100 µM (inactive) each time. For the same compound, the GI50 with K562, with SN12C, in the assay with OVCAR-4, with SF-268, in the assay with NCI-H23 and with SNB-19 was > 100 µM (inactive) each time.
As to `CN(C)/N=N/c1ccccc1`, the GI50 in the assay on Malme-3M, in the assay on SW-620, in the assay on OVCAR-8, in the assay with A498, in the assay with HL-60 and in the assay on OVCAR-3 was > 100 µM (inactive) throughout. Also, the GI50 in the assay with KM12 was 12.7 µM (inactive); in the assay with SK-MEL-2 it was > 100 µM (inactive); in the assay with EKVX it was > 100 µM (inactive); in the assay with RXF 393, > 100 µM (inactive); in the assay on M14, > 100 µM (inactive); in the assay on ACHN, 25.9 µM (inactive). Moreover, the GI50 with K562, with SN12C, in the assay with OVCAR-4, with SF-268, in the assay with NCI-H23 and in the assay on SNB-19 was > 100 µM (inactive) throughout.
Regarding `CC1(C)CC(=O)C(=CNc2nc(-c3ccc(Br)cc3)cs2)C(=O)C1`, the GI50 in the assay with SW-620 is 42.9 µM (inactive); in the assay on OVCAR-8, 51.1 µM (inactive); in the assay on HL-60, 27.7 µM (inactive); in the assay on OVCAR-3 it was 22.3 µM (inactive); with KM12 it was 34 µM (inactive); in the assay with SK-MEL-2, 19.4 µM (inactive). Further, the GI50 is 38.7 µM (inactive) with EKVX; 20.5 µM (inactive) in the assay with M14; 37 µM (inactive) with ACHN; 39.7 µM (inactive) in the assay on SN12C; 32.6 µM (inactive) with MCF7; 37.5 µM (inactive) with OVCAR-4. The GI50 in the assay with NCI-H23 was 25.8 µM (inactive); in the assay with SNB-19, 33.5 µM (inactive).
